Patent US9278914B2, “SARMs and method of use thereof” (UNIVERSITY OF TENNESSEE RESEARCH FOUNDATION, priority 2004, dated 2016)

Columns and labels:
[1] = tested on: castrated (ORX) male Sprague-Dawley rats; experiment: Anabolic and androgenic activity in castrated (ORX) male rats, daily oral gavage for fourteen days; format: in vivo, rat
Experimental: Male Sprague-Dawley rats weighing approximately 200 g were purchased from Harlan Bioproducts for Science (Indianapolis, Ind.).
The test article for this study was weighed and dissolved in 10% DMSO (Fisher) diluted with PEG 300 (Acros Organics, N.J.) for preparation of the appropriate dosage concentrations. […] Animals were randomly assigned to one of seven groups consisting of 4 to 5 animals per group. Control groups (intact and ORX) were administered vehicle daily. […] Where appropriate, animals were castrated on day one of the study.
(§1) In addition, ventral prostate, seminal vesicles, and levator ani muscle were removed, individually weighed, normalized to body weight, and expressed as a percentage of intact control. Student's T-test was used to compare individual dose groups to the intact control group. Significance was defined a priori as a P-value<0.05. Ventral prostate and seminal vesicle weights were evaluated as a measure of androgenic activity, whereas levator ani muscle weight was evaluated as a measure of anabolic activity. Blood was collected from the abdominal aorta, centrifuged, and sera were frozen at −80° C. prior to determination of serum hormone levels. Serum luteinizing hormone (LH) and follicle stimulating hormone (FSH) concentrations were determined.
(§2) The test article for this study was weighed and dissolved in 10% DMSO (Fisher) diluted with PEG 300 (Acros Organics, N.J.) for preparation of the appropriate dosage concentrations. […] Animals were randomly assigned to one of seven groups consisting of 4 to 5 animals per group. Control groups (intact and ORX) were administered vehicle daily. Compound of formula S-XXIII was administered via oral gavage at doses of 0.01, 0.03, 0.1, 0.3, 0.75, and 1 mg/day to both intact and ORX groups. Where appropriate, animals were castrated on day one of the study. Treatment with compound of formula S-XXIII began nine days post ORX and was administered daily via oral gavage for fourteen days.
Male Sprague-Dawley rats weighing approximately 200 g were purchased from Harlan Bioproducts for Science (Indianapolis, Ind.). […] Regenerative effects of the compound of formula S-XXIV in chronically (9 days) ORX rats was similarly evaluated.
as §2, with “S-XXIV” for “S-XXIII”
Male Sprague-Dawley rats weighing approximately 200 g were purchased from Harlan Bioproducts for Science (Indianapolis, Ind.). […] Anabolic and androgenic activity of compound of formula S-XXV in intact animals was evaluated, and the dose response in acutely orchidectomized (ORX) animals was evaluated as well.
The compound was weighed and dissolved in 10% DMSO (Fisher) diluted with PEG 300 (Acros Organics, N.J.) for preparation of the appropriate dosage concentrations.

[2] = tested on: intact male Sprague-Dawley rats; experiment: Anabolic and androgenic activity in intact male rats, daily oral gavage; format: in vivo, rat
Experimental: The test article for this study was weighed and dissolved in 10% DMSO (Fisher) diluted with PEG 300 (Acros Organics, N.J.) for preparation of the appropriate dosage concentrations. The animals were housed in groups of 2 to 3 animals per cage. Animals were randomly assigned to one of seven groups consisting of 4 to 5 animals per group. Control groups (intact and ORX) were administered vehicle daily. […] Where appropriate, animals were castrated on day one of the study. Treatment with compound of formula S-II began nine days post ORX and was administered daily via oral gavage for fourteen days.
as §1, with “The animals were sacrificed under anesthesia (ketamine/xyalzine, 87:13 mg/kg) and body weights were recorded. In” for “In”
(§3) The test article for this study was weighed and dissolved in 10% DMSO (Fisher) diluted with PEG 300 (Acros Organics, N.J.) for preparation of the appropriate dosage concentrations. The animals were housed in groups of 2 to 3 animals per cage. Animals were randomly assigned to one of seven groups consisting of 4 to 5 animals per group. Control groups (intact and ORX) were administered vehicle daily. Compound of formula S-XXIII was administered via oral gavage at doses of 0.01, 0.03, 0.1, 0.3, 0.75, and 1 mg/day to both intact and ORX groups. Where appropriate, animals were castrated on day one of the study. Treatment with compound of formula S-XXIII began nine days post ORX and was administered daily via oral gavage for fourteen days.
as §3, with “S-XXIV” for “S-XXIII”, “study.” for “study. Treatment with compound of formula S-XXIII began nine days post ORX and was administered daily via oral gavage for fourteen days.”

[3] = ORX rats, nonlinear regression, sigmoid Emax model

CC(=O)Nc1ccc(OC[C@](C)(O)C(=O)Nc2ccc([N+](=O)[O-])c(C(F)(F)F)c2)cc1 [S-4, S-3-(4-acetylaminophenoxy)-2-hydroxy-2-methyl-N-(4-nitro-3-trifluoromethylphenyl) propionamide, reference compound]
Levator ani muscle weight, maximally stimulated ([1]; maximal stimulation, comparator): 101%

C[C@](O)(COc1ccc(C#N)c(F)c1)C(=O)Nc1ccc(C#N)c(C(F)(F)F)c1 [S-XXIII]
Levator ani muscle weight ([2]; 0.01 mg/day oral): 116%±7%
Prostate weight ([2]; 0.01 mg/day oral): 98%±21%
Seminal vesicle weight ([2]; 0.01 mg/day oral): 115%±12%
Levator ani muscle weight ([2]; 0.03 mg/day oral): 134%±8%
Prostate weight ([2]; 0.03 mg/day oral): 99%±8%
Seminal vesicle weight ([2]; 0.03 mg/day oral): 109%±17%
Levator ani muscle weight ([2]; 0.1 mg/day oral): 134%±21%
Prostate weight ([2]; 0.1 mg/day oral): 85%±18%
Seminal vesicle weight ([2]; 0.1 mg/day oral): 106%±13%
Levator ani muscle weight ([2]; 0.3 mg/day oral): 134%±11%
Prostate weight ([2]; 0.3 mg/day oral): 98%±22%
Seminal vesicle weight ([2]; 0.3 mg/day oral): 121%±11%
Levator ani muscle weight ([2]; 0.75 mg/day oral): 142%±10%
Prostate weight ([2]; 0.75 mg/day oral): 126%±17%
Seminal vesicle weight ([2]; 0.75 mg/day oral): 157%±5%
Levator ani muscle weight ([2]; 1 mg/day oral): 147%±10%
Prostate weight ([2]; 1 mg/day oral): 126%±17%
Seminal vesicle weight ([2]; 1 mg/day oral): 136%±3%
Dose able to fully restore/maintain levator ani muscle weight ([1]; ORX rats): 0.03 mg/day
ED50 levator ani ([1]; ORX rats): 0.03 ± 0.01 mg/day
ED50 prostate ([1]; ORX rats): 0.21 ± 0.04 mg/day
ED50 seminal vesicles ([1]; ORX rats): 0.2 ± 0.04 mg/day
Levator ani muscle weight ([1]; ORX rats, 0.01 mg/day oral): 71%±4%
Prostate weight ([1]; ORX rats, 0.01 mg/day oral): 24%±4%
Seminal vesicle weight ([1]; ORX rats, 0.01 mg/day oral): 15%±2%
Levator ani muscle weight ([1]; ORX rats, 0.03 mg/day oral): 101%±15%
Prostate weight ([1]; ORX rats, 0.03 mg/day oral): 37%±9%
Seminal vesicle weight ([1]; ORX rats, 0.03 mg/day oral): 25%±9%
Levator ani muscle weight ([1]; ORX rats, 0.1 mg/day oral): 125%±20%
Prostate weight ([1]; ORX rats, 0.1 mg/day oral): 50%±11%
Seminal vesicle weight ([1]; ORX rats, 0.1 mg/day oral): 67%±20%
Levator ani muscle weight ([1]; ORX rats, 0.3 mg/day oral): 126%±14%
Prostate weight ([1]; ORX rats, 0.3 mg/day oral): 88%±16%
Seminal vesicle weight ([1]; ORX rats, 0.3 mg/day oral): 113%±6%
Levator ani muscle weight ([1]; ORX rats, 0.75 mg/day oral): 151±9 % of intact controls
Prostate weight ([1]; ORX rats, 0.75 mg/day oral): 132%±16%
Seminal vesicle weight ([1]; ORX rats, 0.75 mg/day oral): 155%±16%
Levator ani muscle weight ([1]; ORX rats, 1 mg/day oral): 143±17 % of intact controls
Prostate weight ([1]; ORX rats, 1 mg/day oral): 118±12 % of intact controls
Seminal vesicle weight ([1]; ORX rats, 1 mg/day oral): 160%±7%
Emax levator ani [1, 3]: 147%±10%
Emax prostate [1, 3]: 147%±10%
Emax seminal vesicles [1, 3]: 188%±135%
